Test results taken from US8022206B2 (OSI Pharmaceuticals, LLC, priority 2008, dated 2011).

How the values were obtained:
RON (human) = RON (human) (Homo sapiens, UniProt Q04912); assay: RON (human) AlphaScreen kinase assay, Km of ATP; format: biochemical; details: AlphaScreen, Km of ATP; read-out: RON biochemical IC50
In short: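 Reaction was started with enzyme and run 30 min at RT. PT66 donor/acceptor beads in an EDTA-containing Tris pH 7.5 buffer were then added, and the signal was read after 1 h.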

MET (human) = MET (human) (Homo sapiens, UniProt P08581); assay: MET (human) AlphaScreen kinase assay, Km of ATP; format: biochemical; details: AlphaScreen, Km of ATP; read-out: Met biochemical IC50
Sequence of MET (human) (P08581 25-1390): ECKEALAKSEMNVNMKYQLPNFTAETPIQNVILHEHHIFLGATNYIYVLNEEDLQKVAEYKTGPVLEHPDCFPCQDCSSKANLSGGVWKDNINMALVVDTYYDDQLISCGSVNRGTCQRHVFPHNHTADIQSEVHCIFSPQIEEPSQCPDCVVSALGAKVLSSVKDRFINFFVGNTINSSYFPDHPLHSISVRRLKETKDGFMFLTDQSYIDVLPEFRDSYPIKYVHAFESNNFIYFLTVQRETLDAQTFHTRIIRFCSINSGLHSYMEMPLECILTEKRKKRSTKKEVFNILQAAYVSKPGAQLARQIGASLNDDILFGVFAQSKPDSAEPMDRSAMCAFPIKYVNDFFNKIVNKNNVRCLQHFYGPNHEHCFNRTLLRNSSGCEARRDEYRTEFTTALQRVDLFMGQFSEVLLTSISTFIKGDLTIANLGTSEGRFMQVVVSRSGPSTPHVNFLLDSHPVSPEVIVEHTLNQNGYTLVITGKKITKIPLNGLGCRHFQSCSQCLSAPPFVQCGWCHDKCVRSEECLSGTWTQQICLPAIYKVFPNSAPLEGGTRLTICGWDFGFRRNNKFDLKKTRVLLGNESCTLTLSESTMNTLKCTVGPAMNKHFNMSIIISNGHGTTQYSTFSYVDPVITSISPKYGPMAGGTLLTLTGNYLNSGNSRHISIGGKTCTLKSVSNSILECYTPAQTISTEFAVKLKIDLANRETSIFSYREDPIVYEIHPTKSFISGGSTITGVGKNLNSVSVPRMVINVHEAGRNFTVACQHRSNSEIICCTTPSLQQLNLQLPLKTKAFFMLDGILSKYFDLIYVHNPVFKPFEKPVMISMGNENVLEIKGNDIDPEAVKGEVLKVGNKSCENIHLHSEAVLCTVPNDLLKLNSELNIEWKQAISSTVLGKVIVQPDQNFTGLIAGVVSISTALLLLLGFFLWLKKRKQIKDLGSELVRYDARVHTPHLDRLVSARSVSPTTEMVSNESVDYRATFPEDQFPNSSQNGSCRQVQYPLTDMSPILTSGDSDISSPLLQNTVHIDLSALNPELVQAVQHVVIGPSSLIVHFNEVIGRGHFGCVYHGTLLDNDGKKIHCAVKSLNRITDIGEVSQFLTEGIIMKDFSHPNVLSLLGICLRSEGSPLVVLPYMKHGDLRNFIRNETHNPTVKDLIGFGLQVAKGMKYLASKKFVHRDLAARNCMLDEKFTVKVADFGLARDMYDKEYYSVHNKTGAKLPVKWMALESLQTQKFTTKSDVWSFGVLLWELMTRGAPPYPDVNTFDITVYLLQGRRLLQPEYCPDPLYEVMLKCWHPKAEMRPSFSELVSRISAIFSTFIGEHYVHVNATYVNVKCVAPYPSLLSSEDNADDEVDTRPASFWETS
Experimental: Someone skilled in the art will appreciate that a variety of assay formats may be used to determine the activity of the compounds of this invention. For example, AlphaScreen (Amplified Luminescent Proximity Homogeneous Assay) technology was used with the kinases described below. Assay ATP concentrations for individual kinases are included in the text.
Desired compound is added in a final concentration of 1% DMSO with control being vehicle of DMSO alone. MET is diluted to the optimized concentration (optimized on a lot-by-lot basis) in an enzyme diluent buffer (50 mM Tris pH=7.4, 1% glycerol, 0.03% Brij35, 0.24 mM EGTA, 1 mM DTT, and 0.003% BSA). Enzyme is added to initiate the reaction and incubated for 60 min at RT. In subdued light, appropriate amount of PT66 donor and acceptor beads (diluted 1:260 from manufacturer's provision in a 25 mM Tris HCl (pH=7.5), 400 mM NaCl, 100 mM EDTA, 0.3% BSA buffer) are added to the wells. The plates, incubated for 1 h, are read on an AlphaQuest plate reader

Sequence of RON (human) (Q04912 25-1400): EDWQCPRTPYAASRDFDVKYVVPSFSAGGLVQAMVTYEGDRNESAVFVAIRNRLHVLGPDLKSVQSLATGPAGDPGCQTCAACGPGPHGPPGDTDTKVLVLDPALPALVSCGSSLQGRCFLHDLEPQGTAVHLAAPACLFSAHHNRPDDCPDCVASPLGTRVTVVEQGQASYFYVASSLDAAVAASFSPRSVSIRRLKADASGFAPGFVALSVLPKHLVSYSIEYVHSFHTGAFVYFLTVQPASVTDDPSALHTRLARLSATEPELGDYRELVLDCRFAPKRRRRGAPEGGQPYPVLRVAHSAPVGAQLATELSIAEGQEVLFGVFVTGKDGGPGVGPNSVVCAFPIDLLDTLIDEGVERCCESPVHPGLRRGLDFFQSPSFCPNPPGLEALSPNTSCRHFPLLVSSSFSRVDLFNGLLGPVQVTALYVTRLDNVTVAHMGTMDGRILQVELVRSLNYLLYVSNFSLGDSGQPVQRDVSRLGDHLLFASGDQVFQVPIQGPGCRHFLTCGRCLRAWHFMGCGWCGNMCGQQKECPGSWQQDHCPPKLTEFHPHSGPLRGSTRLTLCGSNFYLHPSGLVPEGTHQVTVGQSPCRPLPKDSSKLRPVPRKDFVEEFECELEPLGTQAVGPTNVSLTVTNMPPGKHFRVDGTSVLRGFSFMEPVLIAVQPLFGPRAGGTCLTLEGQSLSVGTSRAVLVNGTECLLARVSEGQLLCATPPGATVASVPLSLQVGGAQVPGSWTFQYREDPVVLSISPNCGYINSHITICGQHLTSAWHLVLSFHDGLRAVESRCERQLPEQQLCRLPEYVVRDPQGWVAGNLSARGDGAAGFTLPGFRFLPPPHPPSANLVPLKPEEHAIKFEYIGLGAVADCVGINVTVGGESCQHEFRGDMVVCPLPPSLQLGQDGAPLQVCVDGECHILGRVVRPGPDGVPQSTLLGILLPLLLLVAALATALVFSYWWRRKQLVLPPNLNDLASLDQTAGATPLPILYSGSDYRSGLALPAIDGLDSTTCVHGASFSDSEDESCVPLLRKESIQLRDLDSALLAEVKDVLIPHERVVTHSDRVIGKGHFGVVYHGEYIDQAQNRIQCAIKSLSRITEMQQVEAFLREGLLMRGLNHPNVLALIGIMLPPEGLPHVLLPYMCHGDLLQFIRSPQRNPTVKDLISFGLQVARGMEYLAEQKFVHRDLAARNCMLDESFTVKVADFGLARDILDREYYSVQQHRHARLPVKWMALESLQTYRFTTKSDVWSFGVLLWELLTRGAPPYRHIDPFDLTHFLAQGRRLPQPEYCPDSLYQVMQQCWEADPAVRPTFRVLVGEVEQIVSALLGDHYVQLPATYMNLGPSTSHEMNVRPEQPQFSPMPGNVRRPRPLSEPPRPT

Row | SMILES | IC50 (RON (human)) | IC50 (MET (human))
1 | C[C@@H](Oc1c(N)ncc2c(C3=CCN(C(=O)Oc4ccccc4)CC3)coc12)c1c(Cl)ccc(F)c1Cl [Example 55, 4-{6-Amino-7-[(R)-1-(2,6-dichloro-3-fluorophenyl)-ethoxy]-furo[3,2-c]pyridin-3-yl}-3,6-dihydro-2H-pyridine-1-carboxylic acid phenyl ester] | 500 to 5000 nM | < 500 nM
2 | C[C@@H](Oc1c(N)ncc2c(C3=CCN(C(=O)C(F)(F)F)CC3)coc12)c1c(Cl)ccc(F)c1Cl [Example 56, 1-(4-{6-Amino-7-[(R)-1-(2,6-dichloro-3-fluorophenyl)-ethoxy]-furo[3,2-c]pyridin-3-yl}-3,6-dihydro-2H-pyridin-1-yl)-2,2,2-trifluoroethanone] | 500 to 5000 nM | 500 to 5000 nM
3 | C[C@@H](Oc1c(N)ncc2c(-c3cccc(CO)c3)coc12)c1c(Cl)ccc(F)c1Cl [Example 57, (3-{6-Amino-7-[(R)-1-(2,6-dichloro-3-fluorophenyl)ethoxy]-furo[3,2-c]pyridin-3-yl}phenyl)methanol] | 500 to 5000 nM | 500 to 5000 nM
4 | CC(=O)Nc1ccc(-c2coc3c(O[C@H](C)c4c(Cl)ccc(F)c4Cl)c(N)ncc23)cc1 [Example 58, N-(4-{6-Amino-7-[(R)-1-(2,6-dichloro-3-fluorophenyl)ethoxy]-furo[3,2-c]pyridin-3-yl}phenyl)acetamide] | 500 to 5000 nM | 500 to 5000 nM
5 | C[C@@H](Oc1c(N)ncc2c(-c3ccc(O)cc3)coc12)c1c(Cl)ccc(F)c1Cl [Example 59, 4-{6-Amino-7-[(R)-1-(2,6-dichloro-3-fluorophenyl)ethoxy]-furo[3,2-c]pyridin-3-yl}phenol] | 500 to 5000 nM | 500 to 5000 nM
6 | COc1cccc(-c2coc3c(O[C@H](C)c4c(Cl)ccc(F)c4Cl)c(N)ncc23)c1 [Example 60, 7-[(R)-1-(2,6-Dichloro-3-fluorophenyl)ethoxy]-3-(3-methoxy-phenyl)furo[3,2-c]pyridin-6-ylamine] | 5000 to 20000 nM | 500 to 5000 nM
7 | C[C@@H](Oc1c(N)ncc2c(-c3ccc(S(C)(=O)=O)cc3)coc12)c1c(Cl)ccc(F)c1Cl [Example 62, 7-[(R)-1-(2,6-Dichloro-3-fluorophenyl)ethoxy]-3-(4-methane-sulfonylphenyl)furo[3,2-c]pyridin-6-ylamine] | 500 to 5000 nM | 500 to 5000 nM
8 | C[C@@H](Oc1c(N)ncc2c(-c3ccc(C(N)=O)cc3)coc12)c1c(Cl)ccc(F)c1Cl [Example 63, 4-{6-Amino-7-[(R)-1-(2,6-dichloro-3-fluorophenyl)ethoxy]-furo[3,2-c]pyridin-3-yl}benzamide] | 500 to 5000 nM | 500 to 5000 nM
9 | C[C@@H](Oc1c(N)ncc2c(-c3ccc(CO)cc3)coc12)c1c(Cl)ccc(F)c1Cl [Example 64, (4-{6-Amino-7-[(R)-1-(2,6-dichloro-3-fluorophenyl)ethoxy]-furo[3,2-c]pyridin-3-yl}-phenyl)methanol] | 500 to 5000 nM | 500 to 5000 nM
10 | C[C@@H](Oc1c(N)ncc2c(-c3ccc(C(=O)O)cc3)coc12)c1c(Cl)ccc(F)c1Cl [Example 65, 4-{6-Amino-7-[(R)-1-(2,6-dichloro-3-fluorophenyl)ethoxy]-furo[3,2-c]pyridin-3-yl}benzoic Acid] | 500 to 5000 nM | 500 to 5000 nM
11 | C[C@@H](Oc1c(N)ncc2c(-c3cccc(N)c3)coc12)c1c(Cl)ccc(F)c1Cl [Example 66, 3-(3-Aminophenyl)-7-[(R)-1-(2,6-dichloro-3-fluorophenyl)ethoxy]-furo[3,2-c]pyridin-6-ylamine] | 500 to 5000 nM | 500 to 5000 nM
12 | C[C@@H](Oc1c(N)ncc2c(-c3cccc(S(C)(=O)=O)c3)coc12)c1c(Cl)ccc(F)c1Cl [Example 67, 7-[(R)-1-(2,6-Dichloro-3-fluor-phenyl)ethoxy]-3-(3-methane-sulfonylphenyl)-furo[3,2-c]pyridin-6-ylamine] | 500 to 5000 nM | < 500 nM
13 | CNC(=O)c1cccc(-c2coc3c(O[C@H](C)c4c(Cl)ccc(F)c4Cl)c(N)ncc23)c1 [Example 68, 3-{6-Amino-7-[(R)-1-(2,6-dichloro-3-fluorophenyl)ethoxy]-furo[3,2-c]pyridin-3-yl}-N-methylbenzamide] | 500 to 5000 nM | 500 to 5000 nM
14 | COc1ccc(-c2coc3c(O[C@H](C)c4c(Cl)ccc(F)c4Cl)c(N)ncc23)cc1 [Example 69, 7-[(R)-1-(2,6-Dichloro-3-fluorophenyl)ethoxy]-3-(4-methoxyphenyl)-furo[3,2-c]pyridin-6-ylamine] | 500 to 5000 nM | 500 to 5000 nM
15 | C[C@@H](Oc1c(N)ncc2c(-c3cccc(C(N)=O)c3)coc12)c1c(Cl)ccc(F)c1Cl [Example 70, 3-{6-Amino-7-[(R)-1-(2,6-dichloro-3-fluorophenyl)ethoxy]-furo[3,2-c]pyridin-3-yl}benzamide] | 500 to 5000 nM | 500 to 5000 nM
16 | C[C@@H](Oc1c(N)ncc2c(-c3ccc(C(=O)NCCN(C)C)cc3)coc12)c1c(Cl)ccc(F)c1Cl [Example 71, 4-{6-Amino-7-[(R)-1-(2,6-dichloro-3-fluorophenyl)ethoxy]-furo[3,2-c]pyridin-3-yl}-N-(2-dimethylaminoethyl)benzamide] | < 500 nM | < 500 nM
17 | C[C@@H](Oc1c(N)ncc2c(-c3ccc(C(=O)N(C)C)cc3)coc12)c1c(Cl)ccc(F)c1Cl [Example 72, 4-{6-Amino-7-[(R)-1-(2,6-dichloro-3-fluorophenyl)ethoxy]-furo[3,2-c]pyridin-3-yl}-N,N-dimethylbenzamide] | 500 to 5000 nM | < 500 nM
18 | C[C@@H](Oc1c(N)ncc2c(-c3cccc(C(=O)N(C)C)c3)coc12)c1c(Cl)ccc(F)c1Cl [Example 73, 3-{6-Amino-7-[(R)-1-(2,6-dichloro-3-fluorophenyl)ethoxy]-furo[3,2-c]pyridin-3-yl}-N,N-dimethylbenzamide] | 500 to 5000 nM | 500 to 5000 nM
19 | C[C@@H](Oc1c(N)ncc2c(-c3cccc(C(=O)NCCN(C)C)c3)coc12)c1c(Cl)ccc(F)c1Cl [Example 74, 3-{6-Amino-7-[(R)-1-(2,6-dichloro-3-fluorophenyl)ethoxy]-furo[3,2-c]pyridin-3-yl}-N-(2-dimethylaminoethyl)benzamide] | < 500 nM | < 500 nM
20 | C[C@@H](Oc1c(N)ncc2c(-c3ccc(C(=O)N4CCN(C)CC4)cc3)coc12)c1c(Cl)ccc(F)c1Cl [Example 75, (4-{6-Amino-7-[(R)-1-(2,6-dichloro-3-fluorophenyl)ethoxy]-furo[3,2-c]pyridin-3-yl}phenyl)-(4-methylpiperazin-1-yl)methanone] | 500 to 5000 nM | < 500 nM
21 | C[C@@H](Oc1c(N)ncc2c(-c3ccc(NS(C)(=O)=O)cc3)coc12)c1c(Cl)ccc(F)c1Cl [Example 76, N-(4-{6-Amino-7-[(R)-1-(2,6-dichloro-3-fluorophenyl)ethoxy]-furo[3,2-c]pyridin-3-yl}phenyl)methanesulfonamide] | 500 to 5000 nM | < 500 nM
22 | C[C@@H](Oc1c(N)ncc2c(-c3ccc(N)cc3)coc12)c1c(Cl)ccc(F)c1Cl [Example 77, 3-(4-Aminophenyl)-7-[(R)-1-(2,6-dichloro-3-fluorophenyl)-ethoxy]furo[3,2-c]pyridin-6-ylamine] | 500 to 5000 nM | 500 to 5000 nM
23 | CC(=O)Nc1cccc(-c2coc3c(O[C@H](C)c4c(Cl)ccc(F)c4Cl)c(N)ncc23)c1 [Example 78, N-(3-{6-Amino-7-[(R)-1-(2,6-dichloro-3-fluorophenyl)ethoxy]-furo[3,2-c]pyridin-3-yl}phenyl)acetamide] | 500 to 5000 nM | 500 to 5000 nM
24 | C[C@@H](Oc1c(N)ncc2c(-c3cccc(NS(C)(=O)=O)c3)coc12)c1c(Cl)ccc(F)c1Cl [Example 79, N-(3-{6-Amino-7-[(R)-1-(2,6-dichloro-3-fluorophenyl)ethoxy]-furo[3,2-c]pyridin-3-yl}phenyl)methanesulfonamide] | 500 to 5000 nM | < 500 nM
25 | C[C@@H](Oc1c(N)ncc2c(-c3cccc(C(=O)O)c3)coc12)c1c(Cl)ccc(F)c1Cl [Example 80, 3-{6-Amino-7-[(R)-1-(2,6-dichloro-3-fluorophenyl)ethoxy]-furo[3,2-c]pyridin-3-yl}benzoic acid] | 500 to 5000 nM | 500 to 5000 nM
26 | COc1cc(OC)cc(-c2coc3c(O[C@H](C)c4c(Cl)ccc(F)c4Cl)c(N)ncc23)c1 [Example 81, 7-[(R)-1-(2,6-Dichloro-3-fluorophenyl)ethoxy]-3-(3,5-dimethoxyphenyl)furo[3,2-c]pyridin-6-ylamine] | 500 to 5000 nM | 500 to 5000 nM
27 | C[C@@H](Oc1c(N)ncc2c(-c3ccn4ccnc4c3)coc12)c1c(Cl)ccc(F)c1Cl [Example 82, 7-[(R)-1-(2,6-Dichloro-3-fluorophenyl)ethoxy]-3-imidazo[1,2-a]pyridin-7-ylfuro[3,2-c]pyridin-6-ylamine] | 500 to 5000 nM | < 500 nM
28 | CNS(=O)(=O)c1cccc(-c2coc3c(O[C@H](C)c4c(Cl)ccc(F)c4Cl)c(N)ncc23)c1 [Example 83, 3-{6-Amino-7-[(R)-1-(2,6-dichloro-3-fluorophenyl)ethoxy]-furo[3,2-c]pyridin-3-yl}-N-methylbenzenesulfonamide] | 500 to 5000 nM | 500 to 5000 nM
